Measured values: ChEMBL document CHEMBL3507680, “University of Dundee, Gates Library screen for HepG2 cell viability”

Test: Human HepG2 cell viability assay in 384 well format
Assay type: toxicity, cell-based
Parameters: dose 125 nL, time 70.5 hour; cytotoxicity at 70.5 h: concentration not given beside the values
Conditions: HepG2 cells, read-out: Inhibition

Row | Compound | cytotoxicity at 70.5 h
1 | CC(C)c1nnc(NC(=O)CSCc2cc(=O)n3ccccc3n2)s1 | -4.94%
2 | Cc1nnc([C@H]2CC[C@@H]3[C@@H](CCN3Cc3c(C)noc3C)O2)o1 | -5.84%
3 | CCN1C[C@H]2C3(CCN(C(C)=O)CC3)CC[C@@]2(C(=O)N(C)C)C1 | -8.84%
4 | Cc1ncsc1C(=O)NCCN1CCCCCC1=O | -12.3%
5 | Cc1cc(C(=O)N(C)CCCn2cccn2)nc(N)n1 | -5.11%
6 | Cc1ncsc1C(=O)N(C)Cc1cccc(Cl)c1 | 9.51%
7 | COCc1cccc(C(=O)N2CCCCC2c2nccs2)c1 (stereo unspecified) | -8.81%
8 | COc1ccc2c(c1)ncn2C[C@]1(O)CCCN2CCCC[C@@H]21 | -13.3%
9 | Cc1ccc(-n2cc(C(=O)NCC(C)Cn3cccn3)nn2)cc1 (stereo unspecified) | -14.5%
10 | CSCCC(=O)N1CCCC(c2nccn2Cc2ccncc2)C1 (stereo unspecified) | -5.49%
11 | O=C1C(Nc2nccn3cnnc23)CCCN1c1ccccc1Cl (stereo unspecified) | -2.45%
12 | CCCN(CCC)C(=O)c1cnn(C)c1C | 9.54%
13 | CN(C)C(=O)N1CCC2(CC1)NC(=O)c1ccccc12 | -2.99%
14 | Cc1ccc(N2CCC3(CN(Cc4cccs4)CCC3(F)F)C2)nn1 (stereo unspecified) | -7.32%
15 | NC(=O)COc1ccc(CNCc2ccc(F)cc2F)cc1 | -5.1%
16 | Cc1ccc(NC(=O)N2CCCC2)c(OCC2CCCO2)c1 (stereo unspecified) | -16.8%
17 | Cc1cnc(N2CCCOC(CN3CCCCC3)C2)nc1 (stereo unspecified) | -5.72%
18 | COc1ccc(S(=O)(=O)NC(=O)c2cscn2)cc1C | -13.6%
19 | N#Cc1cccc(N2CCCC3(CNCCO3)C2)n1 (stereo unspecified) | -8.33%
20 | Cc1cc(-c2cc(F)ccc2C(=O)O)nc(C2CCCCN2C(C)C)n1 (stereo unspecified) | -5.96%
21 | CC(C)CCC1=NC2(CCN(C(=O)N3CCN(C)CC3)CC2)C(=O)N1 | 2.1%
22 | CCCNc1nnc(S(=O)(=O)CCOCC)s1 | -0.768%
23 | CC(C)NC(=O)CN1CCSC2(CCCCC2)C1 | 18.3%
24 | CN(CCC(F)(F)F)c1nc2ccccc2c(=O)[nH]1 | 0.426%

Row | Compound | cytotoxicity at 70.5 h
25 | COc1ccc(C[C@H]2CN(C(=O)c3ccn(C)n3)CC[C@H]2OC)cc1 | -0.598%
26 | O=C(c1n[nH]c2ccccc12)N1CCCC1c1noc(C2CC2)n1 (stereo unspecified) | -17.4%
27 | CCc1nc(Cn2nc(COC)oc2=O)cs1 | -9.78%
28 | Clc1ccccc1Cn1cc(CNC2CCc3ncnn3C2)cn1 (stereo unspecified) | -0.86%
29 | CC(C)Cc1noc(CN(C)C2CCCC2)n1 | 28.6%
30 | CC1CCCN(CCNC(=O)c2ccn(-c3cccc(F)c3)n2)C1 (stereo unspecified) | 1.27%
31 | CCC(C)(C)NCc1nc(C(C)(C)NC(=O)OC(C)(C)C)no1 | -10.2%
32 | Cc1nn(C)c(C)c1NC(=O)CN1CCOC(CN(C)C)C1 (stereo unspecified) | 5.23%
33 | CN(Cc1ccccn1)C(=O)CNC(=O)N1CCc2ccccc2C1 | -10.7%
34 | Fc1cccc(CN2CCC3(CCN3c3ncccn3)C2)c1 (stereo unspecified) | -8.53%
35 | Cc1n[nH]c(C)c1C1COCCN1C(=O)c1cc(Cl)c[nH]1 (stereo unspecified) | -5.39%
36 | CN(c1ccc(F)cc1)S(=O)(=O)c1cc2c(c(C(=O)O)c1)OCCO2 | -10.5%
37 | CC1CCCCN1CCN(C)C(=O)c1cc(CN2CCC(O)CC2)on1 (stereo unspecified) | -0.898%
38 | NC[C@H]1CC[C@H](c2c(C(N)=O)sc3ccccc32)CC1 | -3.54%
39 | O=C(C1CC1)N1C[C@H]2CCCN(S(=O)(=O)c3ccc4c(c3)CCC4)[C@H]2C1 | 3.41%
40 | CC(C)OCCNC1(c2ccc(F)cc2)CCOCC1 | -3.2%
41 | Cn1cc(CN2CCC[C@]3(C[C@@H](Oc4ncccc4F)CO3)C2)cn1 | -6.45%
42 | O=c1cc2c(nn1CN1CCN(c3cccc(Cl)c3)CC1)CCC2 | -6.87%
43 | Cc1ccc(OCCC(=O)NC2CC(=O)N(C)C2)cc1C (stereo unspecified) | -6.43%
44 | CNC(=O)c1ccc(C2CN(c3cc(C)nc(N)n3)CCO2)nc1 (stereo unspecified) | 20%
45 | COc1cccc(S(=O)(=O)NC(=O)CC2CCCO2)c1 (stereo unspecified) | 21.5%
46 | CC(=O)N[C@@H]1CN(C(=O)c2cnc3ccccc3c2)C[C@H]1O | 10.7%
47 | CCn1cnnc1CNC(=O)N1CCOC(c2ccc(Cl)cc2)C1 (stereo unspecified) | -13.5%
48 | O[C@@]1(CNCCCNc2cccnc2)CCCN2CCCC[C@@H]21 | -5.62%

Row | Compound | cytotoxicity at 70.5 h
49 | COc1cc(N2CCC3(CC2)CC(N2CCOCC2)C3)ncn1 | -16%
50 | O=C(CO)N1CCC(c2cncc(-c3cccc(Cl)c3)n2)CC1 | -3.18%
51 | COc1ccc(CN2CCn3c(C(=O)N(C)C)cnc3C2)cc1 | -3.13%
52 | CC(C)c1nc(S(=O)(=O)Nc2ccnn2C2CCCC2)c[nH]1 | 1.34%
53 | CCc1nc(CN2CCCC(NCc3nnc(C4CC4)o3)C2)no1 (stereo unspecified) | 0.376%
54 | CCc1c(C(=O)N2CCC3(CCCN(CCO)C3=O)C2)csc1C (stereo unspecified) | 6.16%
55 | O=C1N(Cc2cccc(F)c2F)CCCC1(O)CNC1CCCC1 (stereo unspecified) | -2.45%
56 | COCCN1CCC2(CC1)CC(OCC1CC1)c1ccc(C)cc12 (stereo unspecified) | 5.78%
57 | O[C@H]1[C@H](NCCSc2ccccn2)c2ccccc2C12CCNCC2 | 1.07%
58 | CN(CCO)C(=O)Nc1ccn(-c2cccc(C(F)(F)F)c2)n1 | -2.71%
59 | CCS(=O)(=O)N1CCCN(CCCOC)CC1 | -6.15%
60 | CO[C@H]1CNC[C@@H]1NC(=O)c1cc(C)nc2ccc(C)cc12 | 12.1%
61 | N#Cc1ccc(F)c(CSCCN2CCOCC2)c1 | -7.03%
62 | O=C(NC1CCc2[nH]c(=O)ccc2C1)C1CCOCC1 (stereo unspecified) | 13.7%
63 | Cc1ccc(-c2nc(CN3CCCC3Cn3cncn3)cs2)o1 (stereo unspecified) | -2.7%
64 | Cc1ccc(NC(=O)N2CCOC(C(N)=O)C2)cc1C(F)(F)F (stereo unspecified) | -4.03%
65 | O=C(O)c1c(-c2cncnc2)ncc2c1CCN(Cc1ccco1)C2 | 24.2%
66 | CC(C)(C)n1ncc2c1CCCC2NCc1ccc2ncccc2c1 (stereo unspecified) | -4.24%
67 | O=C(c1cccs1)N1CCC(O)(CN2CCc3ccccc3C2)C1 (stereo unspecified) | -2.95%
68 | O=C(COCc1ccccc1)NCc1ccc(O)c(F)c1 | -0.734%
69 | CS(=O)(=O)N1CCC2(CCN(Cc3nccs3)CC2)CC1 | -0.411%
70 | Cc1noc(C)c1CCC(=O)NCC1(O)CCCN(c2ccccn2)C1 (stereo unspecified) | -5.72%
71 | CCn1ccnc1CN1CCN(CCC(=O)NC(C)(C)C)CC1C (stereo unspecified) | -1.52%
72 | Cc1cc(NCCN2CCNC2=O)nc2cc3c(cc12)CCC3 | -4.19%

Row | Compound | cytotoxicity at 70.5 h
73 | O=C(C1CC1)N1CC[C@@H]2[C@H](CC1)N(Cc1cccnc1)CCS2(=O)=O | -2.85%
74 | CCNC(=O)CCC(=O)NC(Cc1ccccc1)c1sccc1C (stereo unspecified) | -7.03%
75 | c1csc(-c2noc(C3CCCNC3)n2)c1 (stereo unspecified) | -16.5%
76 | CNc1cccc(C2CN(C(=O)c3c[nH]cn3)CCO2)n1 (stereo unspecified) | 5.85%
77 | Cc1cnn(CCNCc2ccccc2OCc2cccnc2)c1 | -3.61%
78 | CC(C)N(C)S(=O)(=O)N(C)Cc1cnn(C)c1 | -3.87%
79 | CCOC(=O)c1sc2ccsc2c1CNC(=O)COC | 3.32%
80 | Cn1ccnc1-c1noc(NCc2ccc3c(c2)OCCO3)n1 | 8.69%
81 | CN(Cc1noc2c1CCCC2)C(=O)Nc1cncc(F)c1 | -7.85%
82 | CC(C)c1n[nH]c(C(=O)NC(C)c2ccncc2)c1Br (stereo unspecified) | -2.63%
83 | CN1C[C@H]2CN(C(=O)c3ccc4c(c3)OCO4)CCN2C1=O | -8.59%
84 | CN(Cc1cccnc1)C1CC2(CCN(c3ncccn3)CC2)C1 | -15.1%
85 | CCO[C@H]1CC[C@H]2[C@H]1OCCN2C(=O)CC1=CCCCC1 | 24%
86 | Cn1cc(C(=O)N2CCN(Cc3ccsc3)CC2)cn1 | 14.2%
87 | O=C(Nc1cc(C(F)(F)F)c[nH]c1=O)N1CCCSCC1 | -8.3%
88 | Cc1noc(C)c1CN1CCN(Cc2nccn2C)C(C)C1 (stereo unspecified) | -11.9%
89 | CCCn1ccc(C(=O)Nc2ccc3c(c2)C(C)(C)C(=O)N3C)n1 | 13.3%
90 | Cc1ccc(C(CNCc2ccncc2)N2CCOCC2)s1 (stereo unspecified) | 18.9%
91 | O=C(NCC1CCCO1)c1nc2c(s1)CCCN2Cc1ccccc1 (stereo unspecified) | -4.02%
92 | Cc1cc(C(=O)NCc2ccc(F)cc2)nc(C2CCCN2C)n1 (stereo unspecified) | -2.73%
93 | CS(=O)(=O)CCNCc1ccc(OCc2ccccn2)cc1 | 0.418%
94 | CC(Nc1cccc2c1OCCO2)C(=O)Nc1ccc(S(N)(=O)=O)cc1 (stereo unspecified) | 25.1%
95 | O=C(NC1(c2nccs2)CCCC1)c1cc(C2CC2)on1 | -3.31%
96 | O=C(c1cscn1)N1CCC2(CCN(Cc3nccs3)CC2)C1 | -23.5%

Row | Compound | cytotoxicity at 70.5 h
97 | CC(C)(C(=O)NCc1ccccc1F)n1cc(Br)cn1 | -6.29%
98 | CCc1nc(CCNC(=O)NC2CCC(=O)N(C)C2)sc1C (stereo unspecified) | -8.41%
99 | O=c1ccc2c([nH]1)CCC(NCc1ccc3c(c1)OCO3)C2 (stereo unspecified) | -1.6%
100 | Cn1cccc1C(O)CNC(=O)c1ccc(F)c(F)c1 (stereo unspecified) | -13.5%
101 | CCC(CNC(=O)Cc1cc(C)on1)Oc1cccc(F)c1 (stereo unspecified) | 0.445%
102 | Cc1noc(C)c1CN1CCC2(COCc3cnc(N(C)C)nc32)C1 (stereo unspecified) | -3.18%
103 | Cc1nc(NC2CCOCC2)cc(C2CCN2S(C)(=O)=O)n1 (stereo unspecified) | -6.12%
104 | Cc1ccccc1OC1(C(=O)O)CCN(C(=O)CCc2ccco2)CC1 | -3.93%
105 | Cc1cc(CN(C)C(=O)NCc2ccccn2)no1 | -1.24%
106 | CC(=O)N1CCCN(C(C(=O)O)c2ccc(C)cc2C)CC1 (stereo unspecified) | -10.9%
107 | O=C(c1ncoc1C1CC1)N1CCCN(CCCc2ccccc2)CC1 | -10.2%
108 | Cc1cc(C(C)NC(=O)CCN2C(=O)c3ccccc3C2=O)c(C)o1 (stereo unspecified) | 28.1%
109 | COc1c(Br)c(C(=O)NC2CC2)nn1C | 0.124%
110 | CC(CS(C)(=O)=O)NCc1cc(Cl)ccc1F (stereo unspecified) | 19.9%
111 | CC(C)C(=O)N1CCC(C)(c2cc(O)[nH]n2)CC1 | 20%
112 | CC1CCN(C(=O)c2cn(-c3cc(N4CCSCC4)ncn3)cn2)CC1 | 3.74%
113 | C[C@@H](CO)Nc1cc(-c2cn[nH]c2)ncn1 | -0.96%
114 | CCc1ccc(CN2CCCn3c(nc(Cn4ccnc4)cc3=O)C2)o1 | -0.664%
115 | Cc1noc(C(C)N(C)CC(=O)NCCc2ccc(Cl)cc2)n1 (stereo unspecified) | 24.6%
116 | CC(=O)N1CCN(C(=O)NCc2ccccc2Cn2ccnc2)CC1 | -14.1%
